Data as given in patent publication US20250171821A1, “HIF-1 ACTIVATORS AND USES THEREOF” (Ramot at Tel-Aviv University Ltd., priority 2022, published 2025).
“Also recorded” adds a separate entry of the source. Like-named read-outs stand apart in the source and are kept apart here.

How the values were obtained:
fibroblasts = test: Cell-Titer assay of cellular ATP levels, fibroblasts; type: cell-based; settings: for IC50: Homo sapiens, Fibroblast
Text: (§1) Human fibroblasts were isolated from fragments of healthy masticatory oral mucosa (from the posterior hard palate) collected during periodontal surgeries. Informed consent was obtained from all patients. Shallow tissue samples (without submucosa) with a diameter of approximately 2 mm were excised using a #15C scalpel blade. Exclusion criteria for potential tissue donors were smoking, any systemic disease, pregnancy or lactation, or a history of periodontal disease. Cells were separated into connective tissue and epithelium using dispase II (Sigma-Aldrich, Rehovot, Israel) at 2 mg/mL for two hours at 37° C.
(§2) The live/dead viability assay (cat #04511-1KT-F Merck, Germany) was used according to the manufacturer's protocol. Briefly, cells were incubated in a medium supplemented with the indicated concentrations of ML228 for 48 hours. Fluorescein diacetate (6.6 μg/mL) and propidium iodide (5 μg/mL) (Merck, NJ, USA) were prepared in DMEM and added to the cells. Confocal images were captured after addition of the dyes with ZEISS LSM 900, Laser Scanning Microscope. Fluorescence readouts were obtained with ex/em of 490/515 nm and 535/617 nm for green and red, respectively. Cellular ATP levels were quantified using the cell-titer assay (Promega, WI, USA cat #G7570).

MG-63 cells = test: live/dead viability assay, osteoblasts; type: cell-based; settings: MG-63 osteoblasts, ML228 0.62 and 5 μM, 48 hours
Method: as §2

NIH/3T3 cell line = test: Cell confluence / number of cells per image in NIH/3T3 cells; type: cell-based, mouse; settings: 0.63-5 μM ML228, 48 hours, p<0.0001
Method: Embryonic mouse fibroblast NIH/3T3 cell line (ATCC) were seeded at a concentration of 50*10^3 cells/well on 96 well glass bottom plate (P96-1.5H-N, Cellvis) for the immunofluorescence experiment and on cell culture microplate, 96 well, PS, F-Bottom (655090, greiner) for the viability experiment. The cells were cultured with Dulbecco's modified Eagle's medium (DMEM) supplemented with 10% fetal calf serum, 1% Penicillin-Streptomycin solution and 1% L-glutamine (All purchased from Rhenium). At 24 hours post seeding, cells were treated for another 48 hours by replacing them with the cell medium supplemented with a serial dilution (5-0.02 μM, factor dilution of 2) of the ML228, Daprodustat, Enarodustat, Molidustat, Vadadustat or Roxadustat molecules dissolved in DMSO. The final DMSO concentration in the cell medium was 0.01%. Cells were maintained in an incubator at 37° C. in a humidified atmosphere containing 5% CO2.
Image acquisition and quantification were performed by Incucyte SX5 (Sartorius) using software version 2022B Rev2. A standard scan was done for 9 images per well using 20× objective, 2 optical modules (green at excitation/emission of 453-485 nm/494-533 nm in 300 msec acquisition time, and near-IR at excitation/emission of 648-674 nm/685-756 nm in 400 msec acquisition time, including Phase channel) following immunofluorescence protocol. For the image analysis, 2-6 replicates per condition were used. Using the Basic Analyzer mode, “Phase Object Confluence (%)” was acquired using the Phase channel. This measurement is the percentage of the image area occupied by cells. “Total Collagen-I Integrated Intensity Per Image (GCU×μm^2/Image)” was acquired using the green optical module. GCU stands for Green calibrated Unit, while this measurement is the total sum of the Collagen-I objects' fluorescent intensity in the image. “#Cells (Per image)” was acquired by the near-IR optical module. This measurement was calculated by counting the number of nuclei per image.
Multiple comparisons were performed by ordinary one-way ANOVA followed by Dunnett's post-hoc statistical hypothesis for comparing each condition mean to the control mean. Statistical analysis was done using GraphPad Prism version 10.0.0 for Windows, GraphPad Software, Boston, Massachusetts USA, worldwideweb(dot)graphpad(dot)com. For statistical analysis, significance was set as (*) p≤0.05; (**) p≤0.01; (***) p≤0.001; (****) p≤0.0001 and (ns; not significant) p>0.05.

fibroblast cells = test: live/dead viability assay, fibroblasts; type: cell-based; settings: ML228 0.62 and 5 μM, 48 hours
Method: as §2

[1] = tested on: human gingival fibroblasts cells (HGF); test: Collagen-I immunofluorescence in human fibroblasts treated with ML228; type: cell-based; settings: 48 hours
Text: as §1
Cells were cultured to sub-confluence on a 96-well plate culture plate or on round-glass cover slips in a 24 well plate and incubated with ML228 at 37° C. in 5% CO2 for 24-96 hours. Cells were fixed for 20 minutes with 4% paraformaldehyde in phosphate-buffered saline (PBS), washed 3 times with PBS, blocked with 2% bovine serum albumin diluted in PBS, which contains 0.1% Triton X-100 for 20 minutes. Fixed cells were incubated with 1:200 of rabbit anti-human type I collagen (Abcam, Cambridge, UK) for 1 hour at 25° C. […] Fluorescence readouts were obtained with excitation/emission (ex/em) of 495/519 nanometer (nm; green) and 340/488 nm (blue) (for FIGS. 2B and 2D); or with ex/em of 358/461 nm (blue), 495/519 nm (green) and 652/668 nm (red) (for FIG. 5A).
All images were analyzed with the computer-based image analysis system (Image J) using the Fiji 2 software (National Institute of Health). Equal field areas were selected for analysis and quantification of fluorescence signals. Quantification of fluorescence signal intensity measured by color threshold and normalized against β-tubulin intensity. Total collagen was evaluated by total fluorescence area intensity.
The effect of ML228 (chemical structure thereof is depicted in FIG. 1), a known activator of HIF, on fibroblasts and osteoblasts was analyzed. […] Collagen-I levels were evaluated by immunohistochemistry via Collagen-I antibody and a fluorescently-labeled secondary antibody. […]

c1ccc(-c2ccc(CNc3nc(-c4ccccn4)nnc3-c3ccccc3)cc2)cc1 [ML228, N-([1,1′-Biphenyl]-4-ylmethyl)-6-phenyl-3-(2-pyridinyl)-1,2,4-triazin-5-amine]
IC50 (fibroblasts; fibroblasts, 48 hours, read-out: IC50 (ATP levels relative to non-treated cells)): 679 nM | IC50 (fibroblasts; summary statement for the treated cells (fibroblasts and osteoblasts), read-out: IC50 of cellular viability of ML228-treated cells): ~600 nM | metabolically active cell viability as measured by ATP levels (fibroblasts; fibroblasts, increasing ML228 concentrations, 48 hours): decrease in metabolically active cell viability | cell death / cellular toxicity (live/dead assay) (MG-63 cells): without imparting cellular toxicity; also recorded: Almost no dead cells were observed; also recorded: not an increase in cell death | cell confluence vs untreated cells (NIH/3T3 cell line): significant reduction | cell death / cellular toxicity (live/dead assay) (fibroblast cells): without imparting cellular toxicity; also recorded: without imparting cellular death; also recorded: not an increase in cell death | Collagen-I levels compared to baseline of non-treated cells ([1]; ML228 above 312 nM, normalized to cell number (DAPI), FIG. 5C): more than two-fold higher | Collagen-I levels at higher concentrations ([1]; ML228 above 10 μM (10 or 20 μM), HGF cells): gradually decrease | concentration at which maximum collagen levels were observed ([1]; fibroblasts): 5 µM
